Test results published in ChEMBL document CHEMBL1123605, “Renin inhibitors. Dipeptide analogues of angiotensinogen incorporating transition-state, nonpeptidic replacements at the scissile bond” (J Med Chem, 1987).

Experiments:
Renin [1] = molecular target: T1, Renin (Rattus norvegicus, UniProt P08424); experiment: Inhibition against rat plasma renin.; assay type: cell-free
T1 sequence (P08424 whole entry): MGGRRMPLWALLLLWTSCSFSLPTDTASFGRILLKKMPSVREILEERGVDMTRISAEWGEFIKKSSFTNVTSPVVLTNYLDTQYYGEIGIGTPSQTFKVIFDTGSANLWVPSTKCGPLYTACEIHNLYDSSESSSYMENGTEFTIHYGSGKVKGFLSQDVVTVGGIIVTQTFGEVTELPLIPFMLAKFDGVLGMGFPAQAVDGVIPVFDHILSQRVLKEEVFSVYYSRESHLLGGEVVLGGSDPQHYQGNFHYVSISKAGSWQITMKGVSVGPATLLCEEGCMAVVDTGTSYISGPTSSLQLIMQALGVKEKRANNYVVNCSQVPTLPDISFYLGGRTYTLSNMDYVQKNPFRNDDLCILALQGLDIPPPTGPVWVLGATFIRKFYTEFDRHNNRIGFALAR

Renin [2] = molecular target: T2, Renin (Homo sapiens, UniProt P00797); experiment: Inhibition against purified human renal renin
T2 sequence (P00797 whole entry): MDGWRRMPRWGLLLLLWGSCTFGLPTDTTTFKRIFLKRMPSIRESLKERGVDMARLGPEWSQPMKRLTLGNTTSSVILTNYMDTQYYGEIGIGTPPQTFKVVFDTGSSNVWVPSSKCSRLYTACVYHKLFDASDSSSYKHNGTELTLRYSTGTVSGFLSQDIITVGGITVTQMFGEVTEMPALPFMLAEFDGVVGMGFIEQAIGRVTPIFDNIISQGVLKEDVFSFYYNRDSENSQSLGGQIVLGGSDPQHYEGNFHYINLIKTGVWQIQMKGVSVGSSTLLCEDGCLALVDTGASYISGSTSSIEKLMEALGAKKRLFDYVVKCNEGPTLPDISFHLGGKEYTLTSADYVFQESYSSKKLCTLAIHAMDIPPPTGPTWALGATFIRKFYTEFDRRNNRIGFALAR

Renin [3] = molecular target: T2, Renin; experiment: Inhibition against human plasma renin; assay type: cell-free
Cathepsin D (Bos taurus) = molecular target: T3, Cathepsin D (Bos taurus) (UniProt P80209); experiment: Percentage inhibition against cathepsin D at 1.0x10E-5M
T3 sequence (whole entry): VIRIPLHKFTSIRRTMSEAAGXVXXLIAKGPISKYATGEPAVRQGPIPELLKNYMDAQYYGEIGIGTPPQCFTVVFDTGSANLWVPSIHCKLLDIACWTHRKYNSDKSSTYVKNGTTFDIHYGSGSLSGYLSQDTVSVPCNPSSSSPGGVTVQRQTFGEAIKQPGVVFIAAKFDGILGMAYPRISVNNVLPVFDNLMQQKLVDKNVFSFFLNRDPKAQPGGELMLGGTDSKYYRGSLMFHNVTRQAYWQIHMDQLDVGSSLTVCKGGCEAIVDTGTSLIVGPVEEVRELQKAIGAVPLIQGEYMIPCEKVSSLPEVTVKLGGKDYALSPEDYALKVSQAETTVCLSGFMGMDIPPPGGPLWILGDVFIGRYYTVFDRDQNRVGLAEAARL

Pepsin A (Sus scrofa) = Pepsin A (Sus scrofa) (UniProt P00791); experiment: Percentage inhibition against pepsin; NI=no inhibition at 1.0x10E-5M
Cathepsin D = molecular target: T4, Cathepsin D (Bos taurus, UniProt P80209); experiment: Inhibition against cathepsin D
T4 sequence (P80209 whole entry): T3 sequence (whole entry)

[4] = molecular target: T5, Renin (Rattus norvegicus) (UniProt P08424); experiment: Percentage inhibition against rat plasma renin at 1.0x10E-5M; assay type: cell-free
T5 sequence (whole entry): T1 sequence (P08424 whole entry)

Renin [5] = molecular target: T2, Renin; experiment: Inhibition against purified human renin
Renin [6] = molecular target: T1, Renin; experiment: Inhibition against rat plasma renin; assay type: cell-free
[7] = molecular target: T5, Renin (Rattus norvegicus); experiment: Percentage inhibition against rat plasma renin; assay type: cell-free; conditions: concentration not given here

Sequence of Pepsin A (Sus scrofa) (P00791 60-385 limits assumed): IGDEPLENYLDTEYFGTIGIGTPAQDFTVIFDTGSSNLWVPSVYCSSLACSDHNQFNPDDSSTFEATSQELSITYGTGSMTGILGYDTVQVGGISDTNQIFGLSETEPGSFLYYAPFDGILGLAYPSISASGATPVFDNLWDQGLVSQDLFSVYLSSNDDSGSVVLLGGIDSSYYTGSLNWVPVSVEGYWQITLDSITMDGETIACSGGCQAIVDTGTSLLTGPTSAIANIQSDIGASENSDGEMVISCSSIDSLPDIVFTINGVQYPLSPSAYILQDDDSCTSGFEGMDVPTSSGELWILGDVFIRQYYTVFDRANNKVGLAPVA

SMILES | IC50 (Renin [1]) [nM] | IC50 (Renin [2]) [nM] | IC50 (Renin [3]) [nM] | inhibition (Cathepsin D (Bos taurus)) [%] | inhibition (Pepsin A (Sus scrofa)) | IC50 (Cathepsin D) [nM] | inhibition [4] [%] | IC50 (Renin [5]) [nM] | also measured
CC(C)S(=O)(=O)CC[C@H](O)[C@H](CC1CCCCC1)NC(=O)[C@H](Cc1ccccc1)NC(=O)[C@H](Cc1ccccc1)NC(=O)OC(C)(C)C | > 10000 | 20 | 340 | 0 | No inhibition | > 10000 | 26 |  | 
CCS(=O)(=O)CC[C@H](O)[C@H](CC1CCCCC1)NC(=O)[C@H](Cc1cnc[nH]1)NC(=O)[C@H](Cc1ccccc1)NC(=O)OC(C)(C)C |  |  | 28 |  |  | > 10000 |  | 7.6 | IC50 (Renin [6]): > 10000 nM
CC[C@H](C)[C@H](NC(=O)[C@@H](NC(O)[C@H](CC(C)C)NC(=O)[C@H](Cc1c[nH]cn1)NC(=O)[C@H](Cc1ccccc1)NC(=O)[C@@H]1CCCN1C(=O)[C@H](Cc1c[nH]cn1)NC(=O)OC(C)(C)C)C(C)C)C(=O)N[C@@H](Cc1c[nH]cn1)C(=O)O (some centres not stated) |  |  | 0.7 |  |  |  |  |  | 
CCS(=O)(=O)CC[C@H](O)[C@H](CC1CCCCC1)NC(=O)[C@H](Cc1c[nH]cn1)NC(=O)[C@H](Cc1ccccc1)NC(=O)OC(C)(C)C |  |  |  | 0 |  |  |  |  | inhibition [7]: 0%
CC(C)S(=O)(=O)CC[C@H](O)[C@H](CC1CCCCC1)NC(=O)[C@H](Cc1c[nH]cn1)NC(=O)[C@H](Cc1ccccc1)NC(=O)OC(C)(C)C |  |  | 27 | 0 |  | 10000 |  | 7.6 | inhibition [7]: 11%; IC50 (Renin [6]): 10000 nM
CCOC(=O)N[C@@H](Cc1ccccc1)C(=O)N[C@@H](Cc1c[nH]cn1)C(=O)N[C@@H](CC1CCCCC1)[C@@H](O)CCS(=O)(=O)C(C)C |  |  |  | 0 | No inhibition |  | 12 |  | 
CC(C)S(=O)(=O)CC[C@H](O)[C@H](CC1CCCCC1)NC(=O)[C@H](Cc1c[nH]cn1)NC(=O)[C@H](Cc1ccccc1)NC(=O)CC(C)(C)C | > 10000 | 6 | 19 | 0 | No inhibition | > 10000 | 30 |  | 
COc1ccc(C[C@H](NC(=O)OC(C)(C)C)C(=O)N[C@@H](Cc2c[nH]cn2)C(=O)N[C@@H](CC2CCCCC2)[C@@H](O)CCS(=O)(=O)C(C)C)cc1 | > 10000 | 9.1 | 41 | 0 | No inhibition | > 10000 | 0 |  | 
CCS(=O)(=O)CC[C@H](O)[C@H](CC1CCCCC1)NC(=O)[C@H](C)NC(=O)[C@H](Cc1ccccc1)NC(=O)OC(C)(C)C | > 10000 | 140 | 1000 | 18 | No inhibition | > 10000 | 2 |  | 
CC(C)C[C@H](NC(=O)[C@H](C)NC(=O)[C@H](Cc1ccccc1)NC(=O)OC(C)(C)C)[C@@H](O)CCSCCc1ccccc1 |  |  |  |  |  |  |  | 4200 | 
CCOC(=O)N[C@@H](Cc1ccccc1)C(=O)N[C@@H](Cc1cnc[nH]1)C(=O)N[C@@H](CC1CCCCC1)[C@@H](O)CCS(=O)(=O)C(C)C | > 10000 | 10 | 23 |  |  | > 10000 |  |  | 

The next lines start with results.

IC50 (Renin [1]) [nM] | IC50 (Renin [2]) [nM] | IC50 (Renin [3]) [nM] | inhibition (Cathepsin D (Bos taurus)) [%] | inhibition (Pepsin A (Sus scrofa)) | IC50 (Cathepsin D) [nM] | inhibition [4] [%] | IC50 (Renin [5]) [nM] | SMILES | also measured
 |  |  |  |  |  |  | 4800 | CC(C)C[C@H](NC(=O)[C@H](C)NC(=O)[C@H](Cc1ccccc1)NC(=O)OC(C)(C)C)[C@@H](O)CCSC(C)C | 
 |  |  |  |  |  |  | 2400 | CC(C)CCS(=O)(=O)CC[C@H](O)[C@H](CC(C)C)NC(=O)[C@H](C)NC(=O)[C@H](Cc1ccccc1)NC(=O)OC(C)(C)C | 
 |  |  |  |  |  |  | 1800 | CC(C)C[C@H](NC(=O)[C@H](C)NC(=O)[C@H](Cc1ccccc1)NC(=O)OC(C)(C)C)[C@@H](O)CCS(=O)(=O)CCc1ccccc1 | 
 |  |  |  |  |  |  | 5200 | CC(C)CC[S+]([O-])CC[C@H](O)[C@H](CC(C)C)NC(=O)[C@H](C)NC(=O)[C@H](Cc1ccccc1)NC(=O)OC(C)(C)C (some centres not stated) | 
> 10000 | 76 | 850 | 22 | No inhibition | > 10000 | 12 |  | CC(C)S(=O)(=O)CC[C@H](O)[C@H](CC1CCCCC1)NC(=O)[C@H](C)NC(=O)[C@H](Cc1ccccc1)NC(=O)OC(C)(C)C | 
 |  |  |  |  |  |  | 3800 | CC(C)CCC(O)CC[C@H](O)[C@H](CC(C)C)NC(=O)[C@H](C)NC(=O)[C@H](Cc1ccccc1)NC(=O)OC(C)(C)C (some centres not stated) | 
 |  |  |  |  |  |  | 5500 | CC(C)CCSCC[C@H](O)[C@H](CC(C)C)NC(=O)[C@H](C)NC(=O)[C@H](Cc1ccccc1)NC(=O)OC(C)(C)C | 
 |  |  |  |  |  |  | 3200 | CC(C)C[C@H](NC(=O)[C@H](C)NC(=O)[C@H](Cc1ccccc1)NC(=O)OC(C)(C)C)[C@@H](O)CCS(=O)(=O)CC(C)C | 
> 10000 | 14 | 77 |  | No inhibition | 8000 | 18 |  | CC(C)C[C@H](NC(=O)[C@H](Cc1ccccc1)NC(=O)OC(C)(C)C)C(=O)N[C@@H](CC1CCCCC1)[C@@H](O)CCS(=O)(=O)C(C)C | 
 |  |  |  |  |  |  | 2400 | CC(C)CCC(=O)CC[C@H](O)[C@H](CC(C)C)NC(=O)[C@H](C)NC(=O)[C@H](Cc1ccccc1)NC(=O)OC(C)(C)C | 
 |  |  |  |  |  |  | 4100 | CC(C)CSCC[C@H](O)[C@H](CC(C)C)NC(=O)[C@H](C)NC(=O)[C@H](Cc1ccccc1)NC(=O)OC(C)(C)C | 
 |  |  |  |  |  |  | 1600 | CC(C)C[C@H](NC(=O)[C@H](C)NC(=O)[C@H](Cc1ccccc1)NC(=O)OC(C)(C)C)[C@@H](O)CCS(=O)(=O)C(C)C | 
